{"source": "paper PMC9381536", "about": "“Non-apoptotic cell death induction via sapogenin based supramolecular particles” (Scientific Reports, 2022)", "type_in_all_cases": "cell-based", "key": {"[1]": {"assay": "Cytotoxic activity after freeze–thaw cycle", "conditions": "solution, no change in chemical structure"}, "CHOP": {"system": "CHOP", "assay": "CHOP expression (immunoblot, q-RTPCR)", "text": "Figure 3 mRNA microarray analysis was used to identify differentially expressed genes via AG-08 treatment. (A) Heatmap representing the expressions of 193 genes with significant different expression in AG-08 treated cells compared with control. Heatmap was generated by GraphPad Prism version 8 (https://www.graphpad.com/scientific-software/prism/). (B) Protein–protein network analysis was formed via STRING. The thickness of the connecting lines indicates the strength of data support for physical and/or functional associations. (C) Pathway enrichment was determined using GO, KEGG, and Reactome pathway analysis. […] Size of circle represents the significance of enrichment. (D) The protein levels of CHOP were determined via IB. 0.5 µg/ml tunicamycin (Tun) was used as positive control. The experiments were repeated three times independently; with one representative result shown. (E) mRNA level of the CHOP was investigated using quantitative PCR (q-RTPCR). Error bars represent standard error (s.e.). p-values were calculated with respect to vehicle-treated cells by one-way Anova test. (**p < 0.005, ****p < 0.0001). (F) The expression and localization of Calnexin protein were evaluated using immunofluorescence via anti-Calnexin antibody (scale bar 25 µm).\nThe total RNA was isolated using Total RNA Isolation Kit (Bio-Rad, US) following the manufacturer’s instructions. cDNAs were synthesized using The iScript cDNA synthesis kit (Bio-Rad, US) according to the manufacturer’s instructions. To gene expression analysis, specific primers were designed against CHOP (forward: […], reverse: […] ). Quantitative RT-PCR (qRT-PCR) was performed using The SYBR Green I Mastermix (Bio-Rad, US) and LightCycler480 thermocycler (Roche). […] For relative quantification, reaction efficiency incorporated ΔΔCq formula was used. […]\nCell lysates were prepared by RIPA buffer (1XPBS, 1% nonidet P-40, 0.5% sodium deoxycholate, and 0.1% SDS, pH 8.0). Protein concentrations were determined by bicinchoninic acid (BCA) protein assay (Thermo Fisher Scientific, US). […]"}, "HCC1937 cells": {"system": "HCC1937 cells", "assay": "Cytotoxicity of 220 nm filtrates", "procedure": "Figure 1 AG-08 mediated cytotoxicity relies on the supramolecular structures. (A) Structure of AG-08. (B) The scanning transmission electron micrograph of 16 µM AG-08 in PBS. Figure is a representative image of stained sample with uranyl acetate (5683 × magnification; scale bar 600 nm). (C) After 3 h incubation of Nile red solution with AG-08 or AG, fluorescence intensity of Nile red was measured. (D) AG-08, Staurosporine (Sta) or vehicle samples prepared in the cell condition medium was filtrated by 220 nm filter and HCC1937 cells were exposed to the filtrates. After 24 h, the viability of cells was measured and represented as a percentage of that of the vehicle control. The error bars represent mean value ± s.d. (n = 3). *p < 0.05, **p < 0.005, ***p < 0.001. (E) Tween 20 (1:40,000) was added to the fresh medium before addition of 8 μM AG-08 or vehicle. Then cell medium was replaced with this fresh medium. Cell viability was detected after 24 h incubation. […] TEXT PRINTED IN THE PICTURE: (F) no label printed: Diameter: 153.2±4.6; polydispersity index: 0.218\nTo verify that the activity of AG-08 arises from its supramolecular structures, freshly prepared AG-08 solutions were filtered using 220 nm-filters to remove AG-08 supramolecular particles from medium, and the filtrates were analyzed for their cytotoxicity. […] Next, Tween-20 was utilized as a non-ionic detergent to block particle formation, and AG-08-mediated cell death was inhibited as expected (Fig. 1E). […]"}}}
{"smiles": "Cc1ccc(S(=O)(=O)OC2CCC3(C)C4=CCC5(C)C(C6(C)CCC(C(C)(C)O)O6)C(O)CC5(C)C4C=CC3C2(C)C)cc1", "note": "(centres unmarked) [AG-08]", "values": [{"measurement": "cytotoxic activity after one freeze–thaw cycle", "setting": "[1]", "result": "lost"}, {"measurement": "CHOP protein level", "setting": "CHOP; 8 µM", "result": "enhanced"}, {"measurement": "CHOP protein level", "setting": "CHOP; 16 µM", "result": "decreased"}, {"measurement": "CHOP (DDIT3) expression", "setting": "CHOP; AG-08 treated cells", "result": "upregulated in a dose-dependent manner"}, {"measurement": "cytotoxicity of filtrate after 220 nm filtration", "setting": "HCC1937 cells", "result": "no longer exhibited any cytotoxicity"}]}
